Laboratory results from publication PMC5834809 (Cancer Science, 2018).

Key:
[1] = test system: Japanese women with HR+ ABC; details: first‐line therapy; cited from earlier work
[2] = test system: postmenopausal women with ER+/HER2− ABC; details: PALOMA‐2; letrozole with or without palbociclib (3/1 schedule); cited from earlier work
[3] = test system: Japanese postmenopausal patients with ER+/HER2− advanced breast cancer; experiment: Exposure to study drugs and dose modifications; format: in vivo, human; details: for Median average duration of dose interruption (range): during total cycles
[4] = test system: non‐Japanese postmenopausal women with ER+ and HER2− ABC; details: PALOMA‐1; letrozole 2.5 mg QD alone or with palbociclib 125 mg QD 3/1 schedule; cited from earlier work
[5] = Plasma palbociclib steady-state pharmacokinetics; format: in vivo, human
[6] = test system: patients with advanced solid tumors refractory to standard therapy; details: single‐agent, Japanese patients, phase I part 1; cited from earlier work

C=C1C[C@@H]2[C@H](CC[C@]3(C)C(=O)CC[C@@H]23)[C@@]2(C)C=CC(=O)C=C12 [exemestane]
Median time to progression [1]: approximately 12 months

N#Cc1ccc(C(c2ccc(C#N)cc2)n2cncn2)cc1 [letrozole]
Median PFS [2]: 14.5 months | Cycle delay ([3]; N = 42): 8 (19.0) n (%) | Dose interruption ([3]; N = 42): 30 (71.4) n (%) | Median average duration of dose interruption (range) [3]: 1.0 (1.0‐24.5) d | Median average duration of cycle delay (range) ([3]; in vivo): 7 (5‐47) d | Median time to first dose interruption (range) ([3]; in vivo): 107 (5‐404) d | Median PFS [4]: 10.2 months

CC(C)(C#N)c1cc(Cn2cncn2)cc(C(C)(C)C#N)c1 [anastrozole]
Median time to progression [1]: approximately 12 months

CC(=O)c1c(C)c2cnc(Nc3ccc(N4CCNCC4)cn3)nc2n(C2CCCC2)c1=O [palbociclib]
Tmax ([5]; human, plasma, oral): 4.9 h | Ctrough, predose concentration on cycle 2/day 15 ([5]; with letrozole, N = 30, geometric mean (geometric %CV)): 86.8 (40) ng/mL | Ctrough, predose concentration on cycle 1/day 15 ([5]; with letrozole, N = 32, geometric mean (geometric %CV)): 89.4 (44) ng/mL | Ctrough, predose concentration on day 15, cycles 1 and 2 ([5]; with letrozole, N = 38, geometric mean of within‐patient mean Ctrough (geometric %CV)): 90.1 (42) ng/mL | Cycle delay ([3]; N = 42): 39 (92.9) n (%) | Dose interruption ([3]; N = 42): 35 (83.3) n (%) | ≥1 dose reduction ([3]; N = 42): 25 (59.5) n (%) | Median average duration of dose interruption (range) [3]: 5.5 (1.0‐8.5) d | Median average duration of cycle delay (range) ([3]; in vivo): 7 (5‐47) d | Median time to dose reduction (range), first dose reduction ([3]; in vivo): 64 (29‐232) d | Median time to dose reduction (range), second dose reduction ([3]; in vivo): 114 (64‐415) d | Median time to first dose interruption (range) ([3]; in vivo): 15 (5‐124) d | Patients with a dose reduction to 75 mg ([3]; maximum dose reduction, N = 42): 8 (19.0) n (%) | Patients with a dose reduction to 100 mg ([3]; maximum dose reduction, N = 42): 17 (40.5) n (%) | Maximum tolerated dose [6]: 125 mg
